Laboratory results as given in US6218380A, “Pharmaceutical compositions” (SmithKline Beecham p.l.c., priority 1991, dated 2001).
Structures can show the parent of a compound that is named as a salt.

Experiments:
[1] = system: Klebsiella aerogenes 62; test: Antibacterial synergism, microtitre MIC (Example 42); format: cell-based; conditions: method of Example 42; unit not given
[2] = system: Klebsiella aerogenes A; test: as above; format: cell-based; conditions: method of Example 42; unit not given
[3] = system: Staphylococcus aureus (Russell); test: M.I.C. with clavulanic acid methyl ester (Example 32); format: cell-based
[4] = system: Proteus mirabilis C889; test: as above; format: cell-based
[5] = system: Klebsiella aerogenes E 70; test: Antibacterial synergism, microtitre MIC (Example 42); format: cell-based; conditions: method of Example 42; unit not given
[6] = system: strains of Klebsiella aerogenes A; test: Growth inhibition, penicillins with synergist (description); format: cell-based
[7] = system: Staphylococcus aureus; test: Antibacterial synergism, microtitre MIC (Example 42); format: cell-based; conditions: method of Example 42
[8] = Hydrolysis of ester to clavulanic acid in pH 7 buffer; format: physicochemical; conditions: water buffered to pH7
Procedure: The reaction was followed by paper chromatography (bioautographic system). Using the butanol/ethanol/water system to follow the reaction over a period of 2 hours the zone of the methyl ester of Rf 0.79 decreased in size as the zone of clavulanic acid at Rf 0.12 increased.

[9] = Blood and tissue levels in female mice; format: in vivo; conditions: oral administration of 100 mg/kg of the sodium salt
[10] = system: β-lactamase producing strains of Proteus mirabilis and Staphylococcus aureus; test: Synergism with cephaloridine (properties of clavulanic acid); format: cell-based
[11] = system: β-lactamase producing strains of Escherichia coli, Klebsiella aerogenes and Staphylococcus aureus; test: Synergism with ampicillin (properties of clavulanic acid); format: cell-based
[12] = system: strains of Staphylococcus aureus; test: Growth inhibition (properties of clavulanic acid); format: cell-based

CC1(C)S[C@@H]2[C@H](NC(=O)[C@H](N)c3ccccc3)C(=O)N2[C@H]1C(=O)O [Ampicillin, ampicillin]
MIC of Ampicillin + 5 μg/ml of Benzyl Ester of clavulanic acid [1]: 3.9 | MIC of Ampicillin + 5 μg/ml of Methyl Ester of clavulanic acid [1]: 3.9 | MIC of Ampicillin + 5 μg/ml of Benzyl Ester of clavulanic acid [2]: 1.9 | MIC of Ampicillin + 5 μg/ml of Methyl Ester of clavulanic acid [2]: 1.9 | M.I.C. of antibiotic in the presence of 1.0 μg/ml. clavulanic acid methyl ester [3]: < 0.4 µg/mL | M.I.C. for ampicillin in the presence of 5 μg/ml. clavulanic acid methyl ester [4]: 31 µg/mL | MIC of Ampicillin + 5 μg/ml of Benzyl Ester of clavulanic acid [5]: 3.9 | MIC of Ampicillin + 5 μg/ml of Methyl Ester of clavulanic acid [5]: 3.9

CC1(C)S[C@@H]2[C@H](NC(=O)Cc3ccccc3)C(=O)N2[C@H]1C(=O)O [Benzylpenicillin, benzylpenicillin]
Concentration of penicillin that inhibits growth when 5 μg/ml. of clavulanic acid is also present [6]: less than 12.5 μg/ml

O=C(Cc1cccs1)N[C@@H]1C(=O)N2C(C(=O)[O-])=C(C[n+]3ccccc3)CS[C@H]12 [Cephaloridine, cephaloridine]
Minimum Inhibitory Concentrations, cephaloridine in presence of 5 μg/ml clavulanic acid sodium salt [7]: 3.7 µg/mL

COC(=O)[C@H]1/C(=C/CO)O[C@@H]2CC(=O)N21 [clavulanic acid methyl ester]
Hydrolysis to clavulanic acid [8]: slowly hydrolyse to clavulanic acid

O=C(O)[C@H]1/C(=C/CO)O[C@@H]2CC(=O)N21 [clavulanic acid sodium salt, 3-(β-hydroxyethylidine)-7-oxo-4-oxa-1-azabicyclo[3,2,0]heptane-2-carboxylic acid sodium salt]
Levels of clavulanic acid [9]: useful levels

O=C(O)[C@H]1/C(=C/CO)O[C@@H]2CC(=O)N21 [clavulanic acid, Z-(2R,5R)-3-(β-hydroxyethylidene)-7-oxo-4-oxa-1-azabicyclo[3,2,0]heptane-2-carboxylic acid]
Synergism of the antibacterial effect of cephaloridine [10]: able to synergise the antibacterial effect of cephaloridine | Synergism of the antibacterial effect of ampicillin [11]: able to synergise the antibacterial effect of ampicillin | Inhibition of growth of strains of Staphylococcus aureus [12]: able to inhibit the growth
